# Data published in US20010051184A1, “METHOD FOR USING SOLUBLE CURCUMIN TO INHIBIT PHOSPHORYLASE KINASE IN INFLAMMATORY DISEASES” (priority 1999, published 2001).
# Assays:
# epidermal CD8+ T cells = assay: Epidermal CD8+ T-cell density in treated psoriasis; assay type: in vivo, human; conditions: mean, untreated 38.2
# Experimental: (§1) With consent, punch biopsies were collected (6 mm) from active plaques of 10 patients with active untreated psoriasis, from resolving plaques from 10 patients each treated with curcumin alcoholic gel (1%) for 4-6 weeks, and with Dovonex ointment for 6-18 months. Normal skin was also biopsied from 10 non-psoriatic patients to monitor the results. Biopsy specimens for immunocytochemistry were embedded in OCT compound (Tissue-Tek), snap-frozen in liquid nitrogen and stored at −70° C. Serial cryostat sections (4 Tm) were mounted on gelatin-coated slides and air-dried for 30 mins at room temperature. The mounted sections were then freeze-dried for 4 hours, fixed in acetone for 20 mins at room temperature, and air-dried for 5 mins prior to immunostaining. Monoclonal antibodies (as listed at Table 7), were added to the sections, which were then incubated for 60 mins at room temperature, washed in phosphate-buffered saline (PBS) pH 7.6, and overlaid with peroxidase conjugate. All monoclonal antibodies had been obtained from Becton-Dickinson and were used at 1:100 dilution. The sections were then washed with PBS and the peroxidase color developed using diaminobenzidine. Negative controls from all patients were processed as above, omitting the monoclonal antibodies. […] The density of the epidermal CD8+ T-cells was enumerated and quantified as the number of epidermal CD8+ T cells per hpf. […]
# TRR+ keratinocytes = assay: Transferrin receptor (TRR) expression by keratinocytes in treated psoriasis; assay type: in vivo, human; conditions: mean, n=10; treated resolving psoriasis; untreated 60.1%, normal skin 4.3%
# Experimental: With consent, punch biopsies were collected (6 mm) from active plaques of 10 patients with active untreated psoriasis, from resolving plaques from 10 patients each treated with curcumin alcoholic gel (1%) for 4-6 weeks, and with Dovonex ointment for 6-18 months. Normal skin was also biopsied from 10 non-psoriatic patients to monitor the results. Biopsy specimens for immunocytochemistry were embedded in OCT compound (Tissue-Tek), snap-frozen in liquid nitrogen and stored at −70° C. Serial cryostat sections (4 Tm) were mounted on gelatin-coated slides and air-dried for 30 mins at room temperature. The mounted sections were then freeze-dried for 4 hours, fixed in acetone for 20 mins at room temperature, and air-dried for 5 mins prior to immunostaining. Monoclonal antibodies (as listed at Table 7), were added to the sections, which were then incubated for 60 mins at room temperature, washed in phosphate-buffered saline (PBS) pH 7.6, and overlaid with peroxidase conjugate. All monoclonal antibodies had been obtained from Becton-Dickinson and were used at 1:100 dilution. […] The expression of TRR on basal and suprabasal keratinocytes was quantified as the percentage of TRR+ keratinocytes per rete ridge. The keratinocytes of 10 consecutive rete ridges were assessed in for each biopsy and the results averaged.
# [1] = tested on: parakeratosis of stratum corneum; assay: Severity of parakeratosis in treated psoriasis; assay type: in vivo, human; conditions: mean±SD, untreated 94.6±4.3%
# Excerpt: With consent, punch biopsies were collected (6 mm) from active plaques of 10 patients with active untreated psoriasis, from resolving plaques from 10 patients each treated with curcumin alcoholic gel (1%) for 4-6 weeks, and with Dovonex ointment for 6-18 months. Normal skin was also biopsied from 10 non-psoriatic patients to monitor the results. Parakeratosis, assessed histologically by the loss of granular layer and the presence of nuclei of immature keratinocytes within the stratum comeum, reflects in part the migratory capacity of basal keratinocytes towards the stratum comeum. The severity of parakeratosis is assessed as % involvement of a 4 mm linear strip of stratum comeum. An average of three sections per biopsy specimen was used for data analysis.
# HLA-DR+ cells = assay: HLA-DR expression in treated psoriasis; assay type: in vivo, human
# Experimental: as §1, with “diaminobenzidine.” for “diaminobenzidine. Negative controls from all patients were processed as above, omitting the monoclonal antibodies.”, “activated HLA+ inflammatory cell population” for “density of the epidermal CD8+ T-cells”, “assessed as abundant (200-500 or more cells/hpf), moderate (50-200 cells/hpf),” for “enumerated”, “sparse (1-50/hpf).” for “quantified as the number of epidermal CD8+ T cells per hpf.”
# psoriatic plaques = assay: Clinical resolution of psoriatic plaques; assay type: in vivo, human; conditions: clinical observations
# Excerpt: With consent, punch biopsies were collected (6 mm) from active plaques of 10 patients with active untreated psoriasis, from resolving plaques from 10 patients each treated with curcumin alcoholic gel (1%) for 4-6 weeks, and with Dovonex ointment for 6-18 months. Normal skin was also biopsied from 10 non-psoriatic patients to monitor the results.
# In this study, the anti-psoriatic activity of curcumin is reported. Also known as diferuloylmethane, curcumin is a component in spices such as turmeric and ginger. […] Based on clinical observations that untreated psoriatic plaques resolve within 4-6 weeks with curcumin and between 6-18 months or more with Dovonex, the results of this Example lead to the conclusion that curcumin is at least as effective as Dovonex in producing clinical resolution of psoriatic plaques.
# phosphorylase kinase = assay: Phosphorylase kinase activity in treated psoriatic epidermis (Example 6); assay type: in vivo, human; conditions: mean±SD, n=10; curcumin alcoholic gel (1%) 4-6 weeks, Dovonex ointment 6-18 months; untreated psoriasis 1204.6±804.3, normal skin 105.4±44.6
# Experimental: With consent, punch biopsies were collected (6 mm) from active plaques of 10 patients with active untreated psoriasis, from resolving plaques from 10 patients each treated with curcumin alcoholic gel (1%) for 4-6 weeks, and with Dovonex ointment for 6-18 months. Normal skin was also biopsied from 10 non-psoriatic patients to monitor the results. From each site, skin biopsy samples (6 mm punch) were stored at −70° C., and processed thereafter as previously described (Heng et al. (1994), supra). Briefly, each frozen sample, with the epidermal surface facing upwards, was placed in a glass tube to which 3 ml Tris-HCl buffer (10 mM Tris-HCl, pH 7.8, 1 mM dithiothreitol (DDT), 3 mM MgSO4 and 1 mM EGTA) was added. This was homogenized vigorously with a Teflon plunger in a TRIS-R model K41 homogenizer for 1 sec. Homogenization was repeated if necessary. The lysate of epidermal cells, separated from the dermis, was in the cytosolic solution. The fibroblasts that were inadvertently detached, together with the relatively intact piece of dermis, were removed by decanting the cytosolic solution into a 5 ml capacity polypropylene test tube. […] The filter paper containing […] was counted in a liquid scintillation counter. Enzyme activity was determined based on the standard curve prepared with phosphorylase kinase of known activity supplied by Sigma Co (St. Louis, Mo.).
# CD3+ T lymphocytes = CD3+ T lymphocytes in curcumin-treated psoriatic skin (immunohistochemistry, FIG. 9); assay type: in vivo, human; conditions: FIG. 9b; T lymphocytes present only within dermal blood vessels
# [2] = Solubility study on curcumin; assay type: physicochemical; conditions: for Solubility result: 0.5 g of curcumin
# Experimental: Table 1 reports the results of a solubility study on curcumin. […] Curcumin is also not soluble in cold mineral oil or hot mineral oil. However, curcumin is soluble in 70% isopropyl alcohol to at least the extent of 0.5 g/50 ml.
smiles,measurement,setting,value
"COc1cc(/C=C/C(=O)CC(=O)/C=C/c2ccc(O)c(OC)c2)ccc1O [curcumin, (E, E) 1,7-bis(4-hydroxy-3-methoxyphenyl)-1,6-heptadiene-3,5-dione]",Number of epidermal CD8+ cells/hpf,epidermal CD8+ T cells,0.6 cells/hpf
same,Percentage of TRR+ keratinocytes/rete ridge,TRR+ keratinocytes,4.3%
same,"Parakeratosis, linear involvement of stratum corneum",[1],1.4±2.4%
same,"Overall HLA-DR expression (HLA-DR+ inflammatory cell population), grade per specimen","HLA-DR+ cells; 10 skin specimens per treated group, untreated abundant in 10/10",sparse (sparse (1-50/hpf))
same,HLA-DR expression on endothelial cells and keratinocytes,"HLA-DR+ cells; treated psoriasis, untreated strongly positive",not observed
same,Time for psoriatic plaques to resolve under curcumin treatment,psoriatic plaques,4-6 weeks
same,Phosphorylase kinase activity in treated psoriatic epidermis,phosphorylase kinase,207.2±97.6 units/mg protein
same,CD3+ T lymphocytes in epidermis of treated resolving psoriatic skin,CD3+ T lymphocytes,lack of T lymphocytes in epidermis
same,Solubility in 70% isopropyl alcohol,[2]; 70% isopropyl alcohol,≥ 0.5 g/50 ml
same,Solubility result,"[2]; 70% isopropyl alcohol, 5 ml",Soluble (some precipitate?
same,Solubility result,"[2]; 70% isopropyl alcohol, 50 ml",Soluble (no precipitate)
same,Solubility result,"[2]; Cold water, 5 ml",Not soluble (precipitate present)
same,Solubility result,"[2]; Cold water, 50 ml",Not soluble (precipitate present)
same,Solubility result,"[2]; Cold water, 500 ml",Not soluble (precipitate present)
same,Solubility result,"[2]; Mineral oil (140° F.), 5 ml",Not soluble (precipitate present)
same,Solubility result,"[2]; Mineral oil (140° F.), 50 ml",Not soluble (precipitate present)
same,Solubility result,"[2]; Mineral oil, 5 ml",Not soluble (precipitate present)
same,Solubility result,"[2]; Mineral oil, 50 ml",Not soluble (precipitate present)
same,Solubility result,"[2]; Water (200° F.), 5 ml",Not soluble (precipitate present)
same,Solubility result,"[2]; Water (200° F.), 50 ml",Not soluble (precipitate present)
same,Solubility result,"[2]; Water (200° F.), 500 ml",Not soluble (precipitate present)
same,Solubility,[2]; cold mineral oil,not soluble
same,Solubility,[2]; cold water,not soluble
same,Solubility,[2]; hot mineral oil,not soluble
same,Solubility,[2]; hot water,not soluble
